# Source: PMC9653409, “Generative deep learning enables the discovery of a potent and selective RIPK1 inhibitor” (Nature Communications, 2022)
# “And” between values parts separate entries of the source, which are not always exact repeats. Identical values can stand only once.
# How the values were obtained:
# TNFα = experiment: DSS-induced IBD mouse model: TNFα in cultured colon supernatant (ELISA); format: in vivo, C57BL/6 female mice
# Description: (§1) DSS (3% w/v) was administered in drinking water ad libitum for 7 d (from day 0 to day 7). DSS solution was replaced three times on day 2, day 4, and day 6. […] Three mice in each group were killed at random on day 7, and distal colon tissues were collected for analysis. The mice weight and survival rate were recorded daily.
# (§2) In the TNFα-induced SIRS model, at 6 h after TNFα injection, four mice in each group were killed at random, and the serums were collected, the serum concentrations of IL-1β and IL-6 were measured using ELISA kits (Neobioscience Technology) according to manufacturer’s instructions. […] The supernatant was collected by sequential centrifugation at 500 × g for 10 min and 3000 × g for 10 min. The concentrations of cytokines TNFα, IL-6, and IL-1β were measured using ELISA kits (Neobioscience Technology).
# HT29 cells [1] = experiment: Dual staining with CytoCalcein Violet 450 and 7-AAD after TSZ; format: cell-based; conditions: for Dead cell ratio (%): TSZ 24 h, replicates 1-4
# Description: The assay of dual staining with CytoCalcein Violet 450 and 7-AAD was performed in a 24-well cell culture plate. Cells were plated in each well and cultured at 37 °C overnight. […] Then use CytoCalcein Violet 450 and 7-AAD to double stain the HT29 cells and observe under the microscope. All images were acquired with an Eclipse Ci-L microscope (Nikon, Japan). The dead cells were measured with Image J software, and the data was analyzed with GraphPad software. The experiment was repeated three times.
# IL-6 [2] = experiment: DSS-induced IBD mouse model: IL-6 in cultured colon supernatant (ELISA); format: in vivo, C57BL/6 female mice
# Description: as §1, §2
# pRIPK1, pRIPK3, pMLKL = experiment: DSS-induced IBD mouse model: colon western blot; format: in vivo, C57BL/6 female mice; conditions: 40 mg/kg i.p., day 7
# Description: The liver in the SIRS model and the colon in the IBD model were harvested, homogenated and sonicated in RIPA lysis buffer.
# The cell proteins or tissue proteins were separated in a polyacrylamide gel and transferred to a methanol-activated polyvinylidene fluoride membrane. The membrane was blocked for 2 h in Tris-buffered saline plus Tween-20 containing 5% milk and then immunoblotted sequentially with primary and secondary antibodies. Detection was performed with an ECL chemiluminescence kit (Abbkine). The antibodies used were human RIPK1 antibody (R&D, 334640, 1:1000), mouse RIPK1 antibody (Affinity, DF2642, 1:1000), human phospho-RIP (Ser166) rabbit mAb (Cell Signaling Technologies, 65746, 1:1000), mouse phospho-RIP (Ser321) rabbit mAb (Cell Signaling Technologies, 38662, 1:1000), human RIPK3 (B-2) antibody (Santa Cruz, sc-374639, 1:250), mouse RIPK3 antibody (Abcam, ab62344, 1:1000), human anti-RIP3 (phospho S227) antibody (Abcam, ab209384, 1:2000), mouse anti-RIP3 (phospho T231 + S232) antibody (Abcam, ab205421, 1:500), anti-MLKL (58–70) antibody (Sigma, M6697, 1:250), human anti-MLKL (phospho S358) antibody (Abcam, ab187091, 1:1000), mouse anti-MLKL (phospho S345) antibody (Abcam, ab196436, 1:1000), and β-actin (Proteintech, 66009-1-Ig, 1:1000).
# IL-6 [3] = experiment: TNFα-induced SIRS mouse model: serum IL-6 (ELISA); format: in vivo, C57BL/6 female mice
# Description: The body temperatures of the mice were continuously monitored until 6 h after TNFα administration. At 6 h after TNFα injection, four mice in each group were killed at random, and the serums, heart, liver, spleen, lung, and kidney tissues were collected for analysis.
# as §2
# HT29 cells [4] = experiment: TSZ-induced HT29 cell necroptosis model (CCK8); format: cell-based; conditions: Homo sapiens, HT-29
# Description: Cell necroptosis protection assays were performed in 96-well cell culture plates. Cells were plated in each well and cultured at 37 °C overnight. […] The cell survival rate was determined using a CCK8 cell viability assay kit and CLARIOstar (v5.61). […] All experiments were performed at least two times, and each EC50 value was expressed as mean ± standard deviation (SD).
smiles,measurement,setting,value
CC(C)C(=O)Nc1nc2cc(-c3ccc4c(c3)c(C(=O)NC(C)c3ccccc3)cn4C)ccn2n1 (centres unmarked) [RI-962],content of TNFα in cultured colonic tissue supernatants,"TNFα; 40 mg/kg i.p., day 7",substantially reduced
same,TNFα,"TNFα; Figure 9g, individual replicates 1-3",139.9 pg/mL and 111.6 pg/mL and 109.1 pg/mL
same,Dead cell ratio (%),HT29 cells [1]; 3 nM,15.55% and 9.32% and 10.06% and 11.13%
same,Dead cell ratio (%),"HT29 cells [1]; 10 nM, listed as RI-963",9.02% and 6.38% and 5.61% and 6.01%
same,"TSZ-induced necroptosis, dual staining","HT29 cells [1]; HT29, 24 h",inhibited TSZ-induced necroptosis and improved cell survival in a concentration-dependent manner
same,content of IL-6 in cultured colonic tissue supernatants,"IL-6 [2]; 40 mg/kg i.p., day 7",substantially reduced
same,IL-6,"IL-6 [2]; Figure 9i, individual replicates 1-3",994.1 pg/mL and 876.1 pg/mL and 967.8 pg/mL
same,"levels of pRIPK1, pRIPK3, and pMLKL in the colon","pRIPK1, pRIPK3, pMLKL","reduced the levels of pRIPK1, pRIPK3, and pMLKL proteins"
same,concentration of IL-6,"IL-6 [3]; 40 mg/kg i.p., 6 h after TNFα",remarkably reduced
same,IL-6,"IL-6 [3]; Figure 8d, individual replicates 1-4",652.9 pg/mL and 1655 pg/mL and 2421 pg/mL and 1071 pg/mL
same,viability at 56 pM,HT29 cells [4]; 0.000056 μM,20.2%
same,viability at 0.000169 µM,HT29 cells [4]; 0.000169 μM,21.7%
same,viability at 0.000508 µM,HT29 cells [4]; 0.000508 μM,21.7%
same,viability at 0.001524 µM,HT29 cells [4]; 0.001524 μM,23.4%
same,viability at 0.004572 µM,HT29 cells [4]; 0.004572 μM,36.3%
same,viability at 0.013717 µM,HT29 cells [4]; 0.013717 μM,78.8%
same,viability at 0.041152 µM,HT29 cells [4]; 0.041152 μM,96.7%
same,viability at 0.123457 µM,HT29 cells [4]; 0.123457 μM,109%
same,viability at 0.37037 µM,HT29 cells [4]; 0.370370 μM,110%
same,viability at 1.11111 µM,HT29 cells [4]; 1.111111 μM,107%
same,viability at 3.33333 µM,HT29 cells [4]; 3.333333 μM,109%
same,viability at 10 µM,HT29 cells [4]; 10.000000 μM,109%
same,EC50,"HT29 cells [4]; HT29 treated with TSZ, 24 h, read-out: EC50",10 nM
